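Briefly, cells in 96-well plates were exposed to five compound concentrations for 48 h, and endpoints were estimated by linear interpolation. At the TGI there is no net growth.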
How the values were obtained:
Test in all cases: inhibition of tumour cell growth, NCI panel, 48 h
[1] = system: M19-MEL melanoma
[2] = system: DLD-1 colon
[3] = system: SNB-19 CNS
[4] = system: SNB-78 CNS
[5] = system: HCT-116 colon
[6] = system: OVCAR-8 ovarian
[7] = system: UACC-257 melanoma
[8] = system: RXF 393 renal
[9] = system: M14 melanoma
[10] = system: OVCAR-5 ovarian
[11] = system: MALME-3M melanoma
[12] = system: IGROV1 ovarian
[13] = system: UACC-62 melanoma
[14] = system: K-562 leukemia
[15] = system: A498 renal
[16] = system: HL-60(TB) leukemia
[17] = system: HOP-18 NSCLC
[18] = system: EKVX NSCLC
[19] = system: SK-MEL-5 melanoma
[20] = system: SK-MEL-2 melanoma
[21] = system: HOP-62 NSCLC
[22] = system: ACHN renal
[23] = system: SK-MEL-28 melanoma
[24] = system: SF-268 CNS
[25] = system: CAKI-1 renal
[26] = system: SN12C renal
[27] = system: HCT-15 colon
[28] = system: HT29 colon
[29] = system: OVCAR-3 ovarian
[30] = system: SNB-75 CNS
[31] = system: SR leukemia
[32] = system: HCC-2998 colon
[33] = system: KM12 colon
[34] = system: KM20L2 colon
[35] = system: NCI-H23 lung
[36] = system: DMS 273 small cell lung
[37] = system: SW-620 colon
[38] = system: COLO 205 colon
[39] = system: OVCAR-4 ovarian
[40] = system: SF-539 CNS
[41] = system: NCI-H226 lung
[42] = system: LXFL 529 NSCLC
[43] = system: HOP-92 NSCLC
[44] = system: SF-295 CNS
[45] = system: NCI-H522 lung
[46] = system: LOX IMVI melanoma
[47] = system: SK-OV-3 ovarian
[48] = system: NCI-H460 lung
[49] = system: RPMI-8226 leukemia
[50] = system: TK-10 renal
[51] = system: UO-31 renal
[52] = system: 786-0 renal
[53] = system: MOLT-4 leukemia
[54] = system: CCRF-CEM leukemia
[55] = system: A549 NSCLC
[56] = system: U251 CNS

Compound: O=C(/C=C/c1ccccc1Cl)c1ccc(Cl)c(Cl)c1
- TGI [1]: 29.8 µM
- TGI [2]: 30.1 µM
- TGI [3]: 29.9 µM
- TGI [4]: 32.7 µM
- TGI [5]: 23.6 µM
- TGI [6]: 33 µM
- TGI [7]: 40.2 µM
- TGI [8]: 26 µM
- TGI [9]: 33.4 µM
- TGI [10]: 32.8 µM
- TGI [11]: 55.7 µM
- TGI [12]: 25 µM
- TGI [13]: 45.6 µM
- TGI [14]: 67.9 µM
- TGI [15]: 33.9 µM
- TGI [16]: 60.7 µM
- TGI [17]: 32 µM
- TGI [18]: 37.4 µM
- TGI [19]: 36.1 µM
- TGI [20]: 36.9 µM
- TGI [21]: 57.6 µM
- TGI [22]: 28.6 µM
- TGI [23]: 40.4 µM
- TGI [24]: 33.7 µM
- TGI [25]: 30.9 µM
- TGI [26]: > 100 µM
- TGI [27]: 32.2 µM
- TGI [28]: 36 µM
- TGI [29]: 28.7 µM
- TGI [30]: 27.3 µM
- TGI [31]: 54.8 µM
- TGI [32]: 28.8 µM
- TGI [33]: 29.7 µM
- TGI [34]: 31.1 µM
- TGI [35]: 36.4 µM
- TGI [36]: 37.5 µM
- TGI [37]: 28.3 µM
- TGI [38]: > 100 µM
- TGI [39]: 25.5 µM
- TGI [40]: 33.1 µM
- TGI [41]: > 100 µM
- TGI [42]: 29.6 µM
- TGI [43]: 58.1 µM
- TGI [44]: 31.3 µM
- TGI [45]: 31.1 µM
- TGI [46]: 28 µM
- TGI [47]: 51.3 µM
- TGI [48]: > 100 µM
- TGI [49]: > 100 µM
- TGI [50]: 38.8 µM
- TGI [51]: 30.9 µM
- TGI [52]: 29.8 µM
- TGI [53]: 61.4 µM
- TGI [54]: 81.8 µM
- TGI [55]: 40.8 µM
- TGI [56]: 31.1 µM

— PubChem BioAssay (NCI)
